B1: heparinase III: enzyme used to deplete cell membrane GAGs (protein, UniProt Q59289 25-659, looked up)
Heparin-sulfate lyase: QSSSITRKDFDHINLEYSGLEKVNKAVAAGNYDDAAKALLAYYREKSKAREPDFSNAEKPADIRQPIDKVTREMADKALVHQFQPHKGYGYFDYGKDINWQMWPVKDNEVRWQLHRVKWWQAMALVYHATGDEKYAREWVYQYSDWARKNPLGLSQDNDKFVWRPLEVSDRVQSLPPTFSLFVNSPAFTPAFLMEFLNSYHQQADYLSTHYAEQGNHRLFEAQRNLFAGVSFPEFKDSPRWRQTGISVLNTEIKKQVYADGMQFELSPIYHVAAIDIFLKAYGSAKRVNLEKEFPQSYVQTVENMIMALISISLPDYNTPMFGDSWITDKNFRMAQFASWARVFPANQAIKYFATDGKQGKAPNFLSKALSNAGFYTFRSGWDKNATVMVLKASPPGEFHAQPDNGTFELFIKGRNFTPDAGVFVYSGDEAIMKLRNWYRQTRIHSTLTLDNQNMVITKARQNKWETGNNLDVLTYTNPSYPNLDHQRSVLFINKKYFLVIDRAIGEATGNLGVHWQLKEDSNPVFDKTKNRVYTTYRDGNNLMIQSLNADRTSLNEEEGKVSYVYNKELKRPAFVFEKPKKNAGTQNFVSIVYPYDGQKAPEISIRENKGNDFEKGKLNLTLTINGKQQLVLVP

Tested on: NIH3t3: LSL-eGFP cells
Assay: Cre recombination assay (eGFP activation)
Assay type: cell-based, mouse
Settings: cells pre-treated with the agent
Description: Previous studies have the avoided issues associated with direct measurement of fluorescent-tagged proteins (such as being unable to distinguish membrane, vesicle or functional cytosolic/nuclear protein) by assaying for the successful nuclear activity of Cre recombinase {Gump, 2010 #2}. This system was used to measure Cre-mediated recombination of a loxP-STOP-loxP (LSL) enhanced green fluorescent protein (eGFP) reporter gene in live NIH3t3 mouse fibroblast cells (NIH3t3: LSL-eGFP cells) as an indicator of cellular uptake (FIG. 18a). This system is rigorous as activation of green fluorescence requires exogenous Cre protein to enter the cell, undergo nuclear-translocation and excise the LSL fragment of the transgene. This must occur in live cells and be non-toxic for the subsequent expression of eGFP. […] To overcome this issue Cre proteins were delivered at limiting dilutions for a short exposure time (1 hour) and the minimum dose required to activate green fluorescence after 48 hours (FIG. 18c) was determined.
To measure Cre Recombinase activity the NIH3t3: LSL-eGFP cell line was created using the pZ/EG plasmid transfection and G-418 selection {Novak, 2000 #6}. […] 2×10^5 cells/well were plated (in 12-well plates), pre-incubated them in DMEM without serum for 1 hour and treated with Cre proteins (0-500 μg/ml) in DMEM without serum. After the Cre incubation cells were trypsinized, replated into complete media and incubated for 2 days. Cells were pre-treated with drugs for the stated time-period in DMEM without serum, were included in Cre-transduction medium and were added after replating. […] After incubations cell were trypsinized, washed, fixed in 4% PFA and % recombined cells was determined by flow cytometry. For mR-Cre-8R and P21-mR-Cre-8R comparisons concentrations of 100 μg/ml and 10 μg/ml were used, respectively and data was expressed as % maximum recombination (i.e. the % relative to the maximum recombination achieved at the stared dose of Cre).

| Molecule | effect of drug or enzyme treatment on functional delivery / recombination of HETD-tagged Cre protein |
| --- | --- |
| N=C(N)NC(=O)c1nc(Cl)c(N)nc1N [Amiloride] | dose-dependent reduction of functional transduction into cells |
| C=C1[C@@H](C)[C@H]2[C@H](Cc3ccccc3)NC(=O)[C@]23[C@H](OC(C)=O)/C=C/[C@@](C)(O)C(=O)[C@@H](C)C/C=C/[C@H]3[C@@H]1O [Cytochalasin D] | dose-dependent reduction of functional transduction into cells |
| C[C@@H]1[C@H](O)[C@@H](C)/C=C/C=C/CC/C=C/C=C/C=C/C=C/C(O[C@H]2O[C@H](C)[C@@H](O)[C@H](N)[C@@H]2O)CC2O[C@](O)(CC(O)C(O)CCC(O)CC(O)CC(O)CC(=O)O[C@H]1C)CC(O)C2C(=O)O (stereo partly drawn) [nystatin] | dose-dependent inhibition of functional delivery |
| methyl-β-cyclodextrin | dose-dependent inhibition of functional delivery |
| B1 | reduced recombination to basal-levels |

Tested on: cells
Assay: not given
Settings: literature; cited from earlier work

| Molecule | increase of nanoparticle uptake [%] |
| --- | --- |
| Arg-Gly-Asp [RGD] | 50 |

Source: US20180271987A1, “Controlled Cell Delivery Vehicle and Treatment of Tumours” (The University of Nottingham, priority 2015, published 2018)
